Assays:
[1] = biological target: T1, synthetic human Aβ1-42 fibrils (Homo sapiens, UniProt P05067); assay: Competition binding assay against [^3H]MODAG−001 on Aβ1-42 fibrils; conditions: competition vs 1 nM [^3H]MODAG−001, Aβ1-42 fibrils 1 µM; mean ± SEM; read-out: Aβ—Ki [^3H]MODAG−001
T1 construct: Synthetic lyophilized human Aβ1-42 peptide; purchased EMC Microcollections, Tuebingen, Germany; host or cells: chemical synthesis
Description: (§1) The generation of Aβ1-42 fibrils was adapted from Bagchi et al. and described by Kuebler et al.. Synthetic lyophilized human Aβ1-42 peptide (5 mg) with >90% purity (EMC Microcollections, Tuebingen, Germany) was dissolved in DMSO (221.5 µL). […] . The monomers were incubated in an Eppendorf Thermomixer at 37 °C with shaking at 800 rpm for 72 h to induce aggregation. Generated fibrils were sonicated for three minutes in a water bath (Elmasonic S 60 H, Elma Schmidbauer GmbH, Singen, Germany). The final products were aliquoted, frozen on dry ice, and stored at −80 °C until use.
(§2) Plates were incubated on a shaker (MaxQ 6000, Thermo Fisher Scientific Inc., Marietta, OH, USA) at 50 rpm for 2 h at 37 °C, covered by removable sealing tape (PerkinElmer, Waltham, MA, USA). Vacuum filtration and read-out were performed as previously reported. Briefly, a glass fiber Filtermat B (PerkinElmer, Waltham, MA, USA) incubated with 0.5% polyethylenimine (PEI; Sigma Aldrich Chemie GmbH, Munich, Germany) for 30 min at 4 °C prior to filter harvesting was used with a FilterMate Harvester (PerkinElmer, Waltham, MA, USA). Melt-on scintillator sheets (MeltiLex B/HS, PerkinElmer, Waltham, MA, USA) were melted onto dried filters. Accumulation of tritium was counted in a liquid scintillation Wallac MicroBeta TriLux counter (PerkinElmer, Waltham, MA, USA) at two minutes/well.
(§3) . Data points were fitted using non-linear regression analysis in GraphPad Prism (GraphPad Software, Inc., Version 8.4.0, San Diego, CA, USA).

[2] = biological target: T1, synthetic human Aβ1-42 fibrils; assay: Competition binding assay against [^3H]SIL26 on Aβ1-42 fibrils
Description: as §1, §2, §3

[3] = biological target: T2, human recombinant αSYN fibrils (Homo sapiens, UniProt P37840); assay: Competition binding assay against [^3H]MODAG−001 on αSYN fibrils; conditions: for αSYN—Ki [^3H]MODAG−001: competition vs 1 nM [^3H]MODAG−001, αSYN fibrils 50 nM, mean ± SEM
Description: (§4) The concentrations of αSYN fibrils and Aβ1-42 fibrils as above were used.
(§5) Plates were incubated on a shaker (MaxQ 6000, Thermo Fisher Scientific Inc., Marietta, OH, USA) at 50 rpm for 2 h at 37 °C, covered by removable sealing tape (PerkinElmer, Waltham, MA, USA). Vacuum filtration and read-out were performed as previously reported [18]. Briefly, a glass fiber Filtermat B (PerkinElmer, Waltham, MA, USA) incubated with 0.5% polyethylenimine (PEI; Sigma Aldrich Chemie GmbH, Munich, Germany) for 30 min at 4 °C prior to filter harvesting was used with a FilterMate Harvester (PerkinElmer, Waltham, MA, USA). Melt-on scintillator sheets (MeltiLex B/HS, PerkinElmer, Waltham, MA, USA) were melted onto dried filters. Accumulation of tritium was counted in a liquid scintillation Wallac MicroBeta TriLux counter (PerkinElmer, Waltham, MA, USA) at two minutes/well.

[4] = biological target: T2, human recombinant αSYN fibrils; assay: Competition binding assay against [^3H]SIL26 on αSYN fibrils
Description: as §4, §5

[5] = biological target: Aβ; conditions: FDA-approved Aβ PET tracers; cited from earlier work
[6] = biological target: αSYN; conditions: carbon-11 labeled PET tracer; cited from earlier work
[7] = competition vs [^3H]SIL26 (7 nM), αSYN fibrils 35 nM, mean ± SEM

T1 sequence (P05067 672-713 limits assumed): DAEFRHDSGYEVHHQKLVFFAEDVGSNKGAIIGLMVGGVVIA

With `COc1ccc2c(c1)Sc1cc(-c3cc(-c4ccccc4)n[nH]3)ccc1N2` [DAP1a, 3-Methoxy-7-(3-phenyl-1H-pyrazol-5-yl)-10H-phenothiazine] as the molecule, how does the Ki [1] read?
Its Ki is 10.5 ± 0.9 nM.

What about the Ki [2] of the same molecule?
Its Ki is 10.7 nM.

And the Ki [3]?
The Ki was 289 ± 159 nM.

And the Ki [4]?
The Ki was 186 ± 145 nM.

With `COc1ccc2c(c1)Sc1cc(-c3cc(-c4ccccn4)n[nH]3)ccc1N2` [DAP1b, 3-Methoxy-7-(3-(pyridin-2-yl)-1H-pyrazol-5-yl)-10H-phenothiazine] as the molecule, how does the Ki [1] read?
Its Ki is 10.3 ± 0.8 nM.

What about the Ki [2] of the same molecule?
The Ki was 7.6 nM.

What about the Ki [3] of the same molecule?
The Ki was 69.9 ± 14.9 nM.

And the Ki [4]?
Its Ki is 90.1 ± 56.8 nM.

Which Ki [1] does the source give for `COc1ccc2c(c1)Sc1cc(-c3cc(-c4cccc(F)c4)n[nH]3)ccc1N2` [DAP1c, 3-(3-(3-Fluorophenyl)-1H-pyrazol-5-yl)-7-methoxy-10H-phenothiazine] here?
The Ki was 15.9 ± 2.4 nM.

What about the Ki [2] of the same molecule?
Its Ki is 1 nM.

What about the Ki [3] of the same molecule?
The Ki was > 400 nM.

And the Ki [4]?
Its Ki is > 400 nM.

With `FCCOc1ccc2c(c1)Sc1cc(-c3cc(-c4ccccc4)n[nH]3)ccc1N2` [DAP2a, 3-(2-Fluoroethoxy)-7-(3-phenyl-1H-pyrazol-5-yl)-10H-phenothiazine] as the molecule, how does the Ki [1] read?
The Ki was 7.7 ± 1.7 nM.

What about the Ki [2] of the same molecule?
The Ki was 25.8 ± 5.8 nM.

And the Ki [3]?
The Ki was 144 ± 49.5 nM.

And the Ki [4]?
The Ki was > 400 nM.

For `FCCOc1ccc2c(c1)Sc1cc(-c3cc(-c4ccccn4)n[nH]3)ccc1N2` [DAP2b, 3-(2-Fluoroethoxy)-7-(3-(pyridin-2-yl)-1H-pyrazol-5-yl)-10H-phenothiazine], which Ki [1] is on record?
The Ki was 12.2 ± 1.7 nM.

What about the Ki [2] of the same molecule?
The Ki was 65.8 ± 56.4 nM.

What about the Ki [3] of the same molecule?
The Ki was 107 ± 31.4 nM.

What about the Ki [4] of the same molecule?
The Ki was > 400 nM.

With `FCCOc1ccc2c(c1)Sc1cc(-c3cc(-c4cccc(F)c4)n[nH]3)ccc1N2` [DAP2c, 3-(2-Fluoroethoxy)-7-(3-(3-fluorophenyl)-1H-pyrazol-5-yl)-10H-phenothiazine] as the molecule, how does the Ki [1] read?
The Ki was 8 ± 1.3 nM.

And the Ki [2]?
Its Ki is 3.1 ± 2.1 nM.

What about the Ki [3] of the same molecule?
Its Ki is 212 ± 93.8 nM.

And the Ki [4]?
Its Ki is > 400 nM.

Which Ki [1] does the source give for `COc1cccc(Sc2cc(-c3cc(-c4ccccc4)n[nH]3)ccc2N)c1` [DAP3a, 2-((3-Methoxyphenyl)thio)-4-(3-phenyl-1H-pyrazol-5-yl)aniline] here?
The Ki was > 400 nM.

What about the Ki [2] of the same molecule?
Its Ki is 86.1 nM.

And the “αSYN—Ki [^3H]MODAG−001” value [3]?
The value was “no competition”.

What about the “αSYN—Ki [^3H]SIL26” value [4, 7] of the same molecule?
The value was “no competition ^a”.

What does the source list for `COc1cccc(Sc2cc(-c3cc(-c4ccccn4)n[nH]3)ccc2N)c1` [DAP3b, 2-((3-Methoxyphenyl)thio)-4-(3-(pyridin-2-yl)-1H-pyrazol-5-yl)aniline]?
Ki [1]: > 400 nM; αSYN—Ki [^3H]MODAG−001 [3]: no competition; αSYN—Ki [^3H]SIL26 [4, 7]: no competition ^a

For `COc1cccc(Sc2cc(-c3cc(-c4cccc(F)c4)n[nH]3)ccc2N)c1` [DAP3c, 4-(3-(3-Fluorophenyl)-1H-pyrazol-5-yl)-2-((3-methoxyphenyl)thio)aniline], which Ki [1] is on record?
Its Ki is > 400 nM.

What about the “αSYN—Ki [^3H]MODAG−001” value [3] of the same molecule?
The value was “no competition”.

And the “αSYN—Ki [^3H]SIL26” value [4, 7]?
Its value is “no competition ^a”.

With `CNc1ccc(/C=C/c2ccc(OCCOCCOCCF)cc2)cc1` [Florbetaben] as the molecule, how does the Ki [5] read?
Its Ki is 6.7 ± 0.3 nM.

For `CNc1ccc(/C=C/c2ccc(OCCOCCOCCF)nc2)cc1` [Florbetapir], which Kd [5] is on record?
The Kd was 3.72 ± 0.3 nM.

Which Ki [5] does the source give for `CNc1ccc(-c2nc3ccc(O)cc3s2)cc1F` [Flutemetamol] here?
Its Ki is 0.74 ± 0.38 nM.

What does the source list for `CN(C)c1ccc(-c2cc(-c3ccnc(Br)c3)n[nH]2)cc1` [MODAG−001, reference compound]?
Kd [6]: 0.6 ± 0.1 nM; Ki ([4]; read-out: αSYN—Ki [^3H]SIL26, competition vs [^3H]SIL26 (7 nM), αSYN fibrils 35 nM, mean ± SEM): 10.8 nM

Which IC50 [6] does the source give for `CN(C)c1ccc(-c2cc(-c3cccc(Br)c3)[nH]n2)cc1` [[^11C]anle253b] here?
The IC50 was 1.6 nM.
